Measured values from patent US4900658A, “Chromophoric peptides for detecting peptidylglycine-α-amidizing monooxygenase” (Hoechst Aktiengesellschaft, priority 1986, dated 1990).
Where a SMILES comes first, the peptide text is derived from it. [ ]: non-standard residue; d: D form. The star is where a group is joined. Dansyl = CN(C)c1cccc2c(S(=O)(=O)*)cccc12

Biological target: peptidylglycine-α-amidizing monooxygenase (PAM) (Bos taurus, UniProt P10731)
Settings: after 3 hours
Protocol: The tests with the substrate, according to the invention, of the formula I (R=Gly--OH) and with the comparison substance of the formula I (R=NH2) were carried out both with the crude fractions and also with the enriched fractions.
Procedure for enzyme assay using the substrate of the formula I (R=Gly--OH) and the reference substance of the formula II (R=NH2)
The enzyme tests are carried out in a buffer of pH 7.4. The aqueous buffer is composed of the buffer substance N-[tris-(hydroxymethyl)-methyl]-2-amino-ethanesulfonic acid (100 mM), CuSO4 (3 μM), peptide substrate of the formula I (R=Gly--OH) (50 μM) and catalase from bovine liver (100 μg/ml). 100 μl of this buffer solution are incubated with 100 μl of the solution containing PAM, and, after 3 hours at 37° C., the reaction is stopped by adding 700 μl of CH2 Cl2. […] After the mixture has been centrifuged and the organic phase removed, the latter is evaporated in a vacuum centrifuge and the residue is again taken up in a constant volume of CH2 Cl2. All operations are carried out with exclusion of light in order to prevent photo-reactions of the light-sensitive substrate. […] Quantification of the resulting amide of the formula I (R=NH2) by means of a thin layer scanner is made possible by simultaneously applying the peptide amide of the formula II in various concentrations as a reference.

peptidylglycine-α-amidizing monooxygenase (PAM), sequence (P10731 31-972): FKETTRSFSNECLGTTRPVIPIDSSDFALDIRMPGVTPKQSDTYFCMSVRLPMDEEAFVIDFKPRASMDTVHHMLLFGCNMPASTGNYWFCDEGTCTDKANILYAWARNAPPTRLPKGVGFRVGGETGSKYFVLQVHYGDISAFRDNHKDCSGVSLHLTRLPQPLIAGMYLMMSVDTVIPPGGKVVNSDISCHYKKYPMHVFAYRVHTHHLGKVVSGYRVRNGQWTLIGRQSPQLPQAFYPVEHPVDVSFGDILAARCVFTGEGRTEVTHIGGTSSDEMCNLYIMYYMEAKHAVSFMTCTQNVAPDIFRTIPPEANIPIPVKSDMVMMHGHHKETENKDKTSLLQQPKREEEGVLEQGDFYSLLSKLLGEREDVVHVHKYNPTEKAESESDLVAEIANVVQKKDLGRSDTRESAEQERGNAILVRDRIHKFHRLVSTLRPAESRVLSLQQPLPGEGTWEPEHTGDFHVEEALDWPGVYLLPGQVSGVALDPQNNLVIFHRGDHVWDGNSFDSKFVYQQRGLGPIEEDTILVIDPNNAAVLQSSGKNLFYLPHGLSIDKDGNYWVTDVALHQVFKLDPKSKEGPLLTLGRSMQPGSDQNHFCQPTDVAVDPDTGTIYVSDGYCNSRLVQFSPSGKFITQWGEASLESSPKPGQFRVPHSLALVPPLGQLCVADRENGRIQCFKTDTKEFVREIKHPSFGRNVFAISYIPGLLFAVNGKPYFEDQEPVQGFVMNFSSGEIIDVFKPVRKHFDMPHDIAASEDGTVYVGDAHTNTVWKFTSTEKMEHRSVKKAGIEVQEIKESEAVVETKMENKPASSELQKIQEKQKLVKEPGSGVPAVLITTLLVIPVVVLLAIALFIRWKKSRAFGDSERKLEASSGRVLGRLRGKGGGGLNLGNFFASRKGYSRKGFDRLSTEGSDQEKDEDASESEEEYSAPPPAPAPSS

C[C@@H](NS(=O)(=O)c1cccc2c(N(C)C)cccc12)C(=O)N1CCC[C@H]1C(=O)NCC(=O)O [DIS-D-Ala--Pro--Gly--OH, DIS--D--Ala--Pro--Gly--OH] (Dansyl-[dA]-Pro-Gly-OH)
Share of the substrate reacted: approx. 5%
